Assay results taken from patent publication US8541441B2, “Selective glycosidase inhibitors and uses thereof” (Simon Fraser University, priority 2008, dated 2013).
Entries after “also recorded” stand apart in the source; their conditions may differ.

Key:
O-GlcNAcase = target: T1, O-GlcNAcase (Homo sapiens, UniProt O60502); experiment: Assay for determination of K1 values for inhibition of O-GlcNAcase activity; type: biochemical; conditions: pNP-GlcNAc 0.5 mM, PBS buffer pH 7.4, 37° C., Dixon plots
T1 sequence (O60502 1-916): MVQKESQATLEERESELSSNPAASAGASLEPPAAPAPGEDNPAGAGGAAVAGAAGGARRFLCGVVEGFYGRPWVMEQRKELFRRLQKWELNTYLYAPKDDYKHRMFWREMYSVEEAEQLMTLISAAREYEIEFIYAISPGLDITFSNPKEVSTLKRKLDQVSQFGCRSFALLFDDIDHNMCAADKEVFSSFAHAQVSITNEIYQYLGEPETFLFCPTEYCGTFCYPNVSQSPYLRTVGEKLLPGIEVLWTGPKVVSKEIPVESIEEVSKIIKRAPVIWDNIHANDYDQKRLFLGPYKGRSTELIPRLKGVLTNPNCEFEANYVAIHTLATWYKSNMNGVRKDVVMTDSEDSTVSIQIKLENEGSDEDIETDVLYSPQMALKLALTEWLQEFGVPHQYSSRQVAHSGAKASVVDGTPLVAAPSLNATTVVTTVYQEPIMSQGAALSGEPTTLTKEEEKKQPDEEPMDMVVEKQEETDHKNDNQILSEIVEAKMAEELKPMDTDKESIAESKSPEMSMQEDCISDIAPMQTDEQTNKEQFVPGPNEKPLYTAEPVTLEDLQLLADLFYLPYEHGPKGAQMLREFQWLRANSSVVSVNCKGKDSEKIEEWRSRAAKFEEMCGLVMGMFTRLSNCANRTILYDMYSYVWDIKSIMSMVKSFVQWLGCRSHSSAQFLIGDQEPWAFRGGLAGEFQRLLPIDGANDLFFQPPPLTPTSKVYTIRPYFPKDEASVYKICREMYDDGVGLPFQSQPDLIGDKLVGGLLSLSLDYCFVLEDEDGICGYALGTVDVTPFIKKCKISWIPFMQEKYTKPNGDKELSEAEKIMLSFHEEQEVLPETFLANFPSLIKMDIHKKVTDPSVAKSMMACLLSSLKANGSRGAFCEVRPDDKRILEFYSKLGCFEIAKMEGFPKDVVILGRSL
Method: Assay for Determination of […] for Inhibition of O-GlcNAcase Activity Experimental procedure for kinetic analyses: Enzymatic reactions were carried out in PBS buffer (pH 7.4) using pNP-GlcNAc as a substrate (0.5 mM) and monitored continuously at 37° C. at 400 nm using a Cary 3E UV-VIS spectrophotometer equipped with a Peltier temperature controller. Reactions were pre-heated in a 500 μl, quartz cuvette for approximately 5 minutes followed by addition of 10 μL enzyme via syringe (final enzyme concentration 0.002 mg/mL). Reaction velocities were determined by linear regression of the linear region of the reaction progress curve between the first and third minutes. An inhibitor concentration range of ⅕ to 5 times K1 was used in each case. […] All K1 values are determined using linear regression of Dixon plots.

3T3-L1 cells = experiment: Western blot of cellular levels of O-GlcNAc-modified proteins in 3T3-L1 cells; type: cell-based; conditions: 100 μM, 16 hours, anti-O-GlcNAc mAb CTD110.6, compared to control
Method: FIGS. 1A-B show Western blots of proteins from 3T3-L1 cells cultured for 16 hours in the presence or absence of 100 μM of Compound 1 (Table 1). Incubation of 3T3-L1 cells with Compound 1 causes an increase in cellular levels of O-GlcNAc-modified proteins; plus signs (“+”) indicate presence of Compound 1, while minus signs (“−”) indicate absence of Compound 1. FIG. 1A: Western blot analysis of cellular levels of O-GlcNAc-modified proteins using anti-O-GlcNAc MAb CTD 110.6 followed by an anti-mouse IgG-HRP conjugate.
Western Blot Analyses: 3T3-L1 adipocytes were treated with Compound 1 at 100 μM for 16 hours. Cells were harvested by adding 400 μL of 1% SDS with 50 mM beta-ME, boiling this for 10 minutes, using these lysates in subsequent Western blots. Briefly, samples were separated by SDS-PAGE (10% gels), transferred to nitrocellulose membrane (Bio-Rad), blocked for one hour at room temperature (RT) with 1% bovine serum albumin (BSA) in PBS containing 0.1% Tween-20 (PBS-T) and then subsequently probed with the appropriate primary antibody delivered in 1% BSA in PBS-T for overnight at 4° C. […]

CC(=O)N[C@H]1CN2CC[C@H](O)[C@@H]2[C@@H](O)[C@@H]1O [Compound 1]
Ki (O-GlcNAcase): 670 nM | cellular levels of O-GlcNAc-modified proteins (3T3-L1 cells): Marked increases; also recorded: increase
